Consider 14 compounds from ChEMBL document CHEMBL1933065, “Synthesis and antifungal evaluation of pyrido[1,2-a]indole-1,4-diones and benzo[f]pyrido[1,2-a]indole-6,11-diones” (2012).

Converted amounts (≈) assume the structure as drawn.

Common to all, as to type: functional
Assay [1] deals with Cryptococcus neoformans. Kind of assay: Antifungal activity against Cryptococcus neoformans Berkout KCCM 50564 after 1 day by two fold broth dilution method. The note with it: Berkout KCCM 50564, 24 h.
The test system of assay [2] is Aspergillus flavus. Put plainly: Antifungal activity against Aspergillus flavus KCCM 11899 after 2 days by two fold broth dilution method. Conditions: KCCM 11899, 48 h.
Assay [3] relates to Pichia kudriavzevii. Kind of assay: Antifungal activity against Candida krusei Berkout KCCM 11655 after 1 day by two fold broth dilution method. Conditions: Berkout KCCM 11655, 24 h.
Assay [4] relates to Candida albicans. Put plainly: Antifungal activity against Candida albicans Berkout KCCM 50235 after 1 day by standard two fold broth dilution method. The note with it: Berkout KCCM 50235, 24 h.
For assay [5], the system named is Aspergillus niger. Put plainly: Antifungal activity against Aspergillus niger KCTC 1231 after 2 days by two fold broth dilution method. Conditions: KCTC 1231, 48 h.
For assay [6], the system named is Candida tropicalis. Kind of assay: Antifungal activity against Candida tropicalis Berkout KCCM 50662 after 1 day by two fold broth dilution method. Conditions: Berkout KCCM 50662, 24 h.

In the case of `CC(=O)c1c2c(n3ccc(C)cc13)C(=O)C(C)=C(C)C2=O`, the MIC in assay [1] amounted to 1.6 µg/mL (≈ 5.69 µM); in assay [2] it was 3.2 µg/mL (≈ 11.4 µM); in assay [3] it was 12.5 µg/mL (≈ 44.4 µM); in assay [4] it was 1.6 µg/mL (≈ 5.69 µM); in assay [5] it was 3.2 µg/mL (≈ 11.4 µM); in assay [6] it was 6.3 µg/mL (≈ 22.4 µM).
Consider `COc1ccn2c3c(c(C(C)=O)c2c1)C(=O)C(C)=C(C)C3=O`, for which the MIC was determined as 6.3 µg/mL (≈ 21.2 µM) in assay [1]; 25 µg/mL (≈ 84.1 µM) in assay [2]; 3.2 µg/mL (≈ 10.8 µM) in assay [3]; 25 µg/mL (≈ 84.1 µM) in assay [4]; 3.2 µg/mL (≈ 10.8 µM) in assay [5]; 25 µg/mL (≈ 84.1 µM) in assay [6].
In the case of `CCc1ccn2c3c(c(C(C)=O)c2c1)C(=O)C(C)=C(C)C3=O`, the MIC in assay [1] was 6.3 µg/mL (≈ 21.3 µM); in assay [2] it was 3.2 µg/mL (≈ 10.8 µM); in assay [3], 3.2 µg/mL (≈ 10.8 µM); in assay [4], 6.3 µg/mL (≈ 21.3 µM); in assay [5], 1.6 µg/mL (≈ 5.42 µM); in assay [6] it was 12.5 µg/mL (≈ 42.3 µM).
Regarding `CC(=O)c1c2c(n3cc(Cl)ccc13)C(=O)C(C)=C(C)C2=O`, the MIC in assay [1] was found to be 6.3 µg/mL (≈ 20.9 µM); in assay [2], 3.2 µg/mL (≈ 10.6 µM); in assay [3] it was 3.2 µg/mL (≈ 10.6 µM); in assay [4] it was 6.3 µg/mL (≈ 20.9 µM); in assay [5] it was 1.6 µg/mL (≈ 5.3 µM); in assay [6] it was 12.5 µg/mL (≈ 41.4 µM).
With `CCOC(=O)c1c2c(n3ccc(C)cc13)C(=O)C(C)=C(C)C2=O`, the MIC is 12.5 µg/mL (≈ 40.1 µM) in assay [1]; 6.3 µg/mL (≈ 20.2 µM) in assay [2]; 6.3 µg/mL (≈ 20.2 µM) in assay [3]; 6.3 µg/mL (≈ 20.2 µM) in assay [4]; 3.2 µg/mL (≈ 10.3 µM) in assay [5]; 50 µg/mL (≈ 161 µM) in assay [6].
Take `CCOC(=O)c1c2c(n3ccc(OC)cc13)C(=O)C(C)=C(C)C2=O`: the MIC in assay [1] is 50 µg/mL (≈ 153 µM); in assay [2], 3.2 µg/mL (≈ 9.78 µM); in assay [3], 6.3 µg/mL (≈ 19.2 µM); in assay [4] it was 12.5 µg/mL (≈ 38.2 µM); in assay [5], 3.2 µg/mL (≈ 9.78 µM); in assay [6], 6.3 µg/mL (≈ 19.2 µM).
For the compound `CCOC(=O)c1c2c(n3cc(C)ccc13)C(=O)C(C)=C(C)C2=O`, the MIC is 3.2 µg/mL (≈ 10.3 µM) in assay [1]; 12.5 µg/mL (≈ 40.1 µM) in assay [2]; 12.5 µg/mL (≈ 40.1 µM) in assay [3]; 12.5 µg/mL (≈ 40.1 µM) in assay [4]; 25 µg/mL (≈ 80.3 µM) in assay [5]; 12.5 µg/mL (≈ 40.1 µM) in assay [6].
For `COC(=O)c1c2c(n3ccc(OC)cc13)C(=O)C(C)=C(C)C2=O`, the MIC in assay [1] stood at 1.6 µg/mL (≈ 5.11 µM); in assay [2], 25 µg/mL (≈ 79.8 µM); in assay [3], 12.5 µg/mL (≈ 39.9 µM); in assay [4] it was 6.3 µg/mL (≈ 20.1 µM); in assay [5], 25 µg/mL (≈ 79.8 µM); in assay [6], 25 µg/mL (≈ 79.8 µM).
Consider `CCc1ccn2c3c(c(C(=O)OC)c2c1)C(=O)C(C)=C(C)C3=O`, for which the minimum inhibitory concentration (MIC) in assay [1] is 0.8 µg/mL (≈ 2.57 µM); in assay [2], 6.3 µg/mL (≈ 20.2 µM); in assay [3], 25 µg/mL (≈ 80.3 µM); in assay [4], 3.2 µg/mL (≈ 10.3 µM); in assay [5] it was 1.6 µg/mL (≈ 5.14 µM); in assay [6] it was 12.5 µg/mL (≈ 40.1 µM).
On to `COC(=O)c1c2c(n3ccc(C)cc13)C(=O)C(C)=C(C)C2=O`, for which the MIC in assay [1] was found to be 25 µg/mL (≈ 84.1 µM); in assay [2] it was 3.2 µg/mL (≈ 10.8 µM); in assay [3], 6.3 µg/mL (≈ 21.2 µM); in assay [4] it was 6.3 µg/mL (≈ 21.2 µM); in assay [5] it was 6.3 µg/mL (≈ 21.2 µM); in assay [6] it was 6.3 µg/mL (≈ 21.2 µM).
As for `CC1=C(C)C(=O)c2c(cc3cc(C)ccn23)C1=O`, the minimum inhibitory concentration (MIC) in assay [1] was found to be 6.3 µg/mL (≈ 26.3 µM); in assay [2], 1.6 µg/mL (≈ 6.69 µM); in assay [3], 12.5 µg/mL (≈ 52.2 µM); in assay [4] it was 12.5 µg/mL (≈ 52.2 µM); in assay [5], 12.5 µg/mL (≈ 52.2 µM); in assay [6], 6.3 µg/mL (≈ 26.3 µM).
For the compound `COc1ccn2c3c(cc2c1)C(=O)C(C)=C(C)C3=O`, the MIC in assay [1] was 1.6 µg/mL (≈ 6.27 µM); in assay [2], 6.3 µg/mL (≈ 24.7 µM); in assay [3], 12.5 µg/mL (≈ 49 µM); in assay [4], 6.3 µg/mL (≈ 24.7 µM); in assay [5], 12.5 µg/mL (≈ 49 µM); in assay [6] it was 6.3 µg/mL (≈ 24.7 µM).
Consider `CCOC(=O)c1c2c(n3ccccc13)C(=O)C(C)=C(C)C2=O`, for which the MIC in assay [1] was 6.3 µg/mL (≈ 21.2 µM); in assay [2] it was 3.2 µg/mL (≈ 10.8 µM); in assay [3], 3.2 µg/mL (≈ 10.8 µM); in assay [4], 12.5 µg/mL (≈ 42 µM); in assay [5], 6.3 µg/mL (≈ 21.2 µM); in assay [6], 6.3 µg/mL (≈ 21.2 µM).
Regarding `CCOC(=O)c1c2c(n3ccc(C#N)cc13)C(=O)C(C)=C(C)C2=O`, the MIC in assay [1] came out at 6.3 µg/mL (≈ 19.5 µM); in assay [2], 3.2 µg/mL (≈ 9.93 µM); in assay [3], 6.3 µg/mL (≈ 19.5 µM); in assay [4], 3.2 µg/mL (≈ 9.93 µM); in assay [5], 6.3 µg/mL (≈ 19.5 µM); in assay [6] it was 3.2 µg/mL (≈ 9.93 µM).
